# Measurements reported in patent US8846947B2, “Benzimidazoles and related analogs as sirtuin modulators” (GlaxoSmithKline LLC, priority 2008, dated 2014).
# Target: T1, SIRT1 (Homo sapiens, UniProt Q96EB6)
# T1 sequence (Q96EB6 1-747): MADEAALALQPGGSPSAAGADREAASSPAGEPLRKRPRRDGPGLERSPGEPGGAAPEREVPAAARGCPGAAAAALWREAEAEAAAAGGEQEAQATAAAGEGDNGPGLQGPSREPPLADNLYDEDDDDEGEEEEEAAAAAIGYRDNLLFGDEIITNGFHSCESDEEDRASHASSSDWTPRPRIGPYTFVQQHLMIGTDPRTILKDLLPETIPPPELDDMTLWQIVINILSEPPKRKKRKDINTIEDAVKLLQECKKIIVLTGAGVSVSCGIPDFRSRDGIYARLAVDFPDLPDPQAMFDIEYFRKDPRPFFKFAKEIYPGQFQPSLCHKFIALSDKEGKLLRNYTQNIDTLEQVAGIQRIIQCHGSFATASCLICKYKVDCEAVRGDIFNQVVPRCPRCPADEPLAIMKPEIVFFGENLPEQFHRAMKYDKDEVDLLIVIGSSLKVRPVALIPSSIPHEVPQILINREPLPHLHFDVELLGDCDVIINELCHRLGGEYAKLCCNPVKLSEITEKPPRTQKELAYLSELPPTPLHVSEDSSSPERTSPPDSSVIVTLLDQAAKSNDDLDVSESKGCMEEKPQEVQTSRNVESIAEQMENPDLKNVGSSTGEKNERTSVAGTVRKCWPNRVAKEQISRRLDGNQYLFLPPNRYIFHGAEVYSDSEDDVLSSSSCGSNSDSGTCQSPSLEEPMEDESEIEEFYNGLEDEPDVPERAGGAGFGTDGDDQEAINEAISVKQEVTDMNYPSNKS
# Test: Mass spectrometry based SIRT1 deacetylase activation assay (acetylated p53-derived peptide substrate)
# Assay type: biochemical
# Settings: 0.5 μM peptide substrate, 120 μM βNAD+, 10 nM SIRT1, 25 min at 25° C.; for EC1.5: read-out: EC1.5
Fold Act. (percent maximum fold activation),EC1.5 [nM],Compound
B (Fold Activation <200%),> 25000,O=C(NC1CCNCC1)c1cccc2[nH]c(-c3cc(F)ccc3C(F)(F)F)nc12 [Compound 438]
B (Fold Activation <200%),> 25000,CN1CCOc2cc(-c3nc4c(C(=O)Nc5ccccn5)cccc4[nH]3)cnc21 [Compound 439]
A (Fold activation >200%),< 1000,Cc1cnc(NC(=O)c2cccc3[nH]c(-c4cnc5c(c4)OCCN5C)nc23)s1 [Compound 440]
A (Fold activation >200%),< 1000,O=C(Nc1nccs1)c1cccc2[nH]c(-c3ccc(OC4CCNC4)cc3)nc12 (stereo not drawn) [Compound 441]
A (Fold activation >200%),< 1000,O=C(Nc1ccccn1)c1cccc2[nH]c(-c3ccc(OC4CCNC4)cc3)nc12 (stereo not drawn) [Compound 442]
B (Fold Activation <200%),> 25000,O=C(NC1CCOC1=O)c1cccc2[nH]c(-c3ccnn3-c3ccccc3)nc12 (stereo not drawn) [Compound 443]
B (Fold Activation <200%),> 25000,CCCN1CCc2cc(-c3nc4c(C(=O)Nc5nccs5)cccc4[nH]3)ccc21 [Compound 444]
A (Fold activation >200%),1000 to 25000,CC1(C)Cc2cc(-c3nc4c(C(=O)Nc5nccs5)cccc4[nH]3)ccc2O1 [Compound 445]
B (Fold Activation <200%),< 1000,O=C(Nc1nccs1)c1cccc2[nH]c(-c3ccnc(N4CCCC4)c3)nc12 [Compound 446]
A (Fold activation >200%),< 1000,O=C(Nc1nccs1)c1cccc2[nH]c(-c3ccc(OC4CCNCC4)cc3)nc12 [Compound 447]
A (Fold activation >200%),< 1000,O=C(Nc1nccs1)c1cccc2[nH]c(-c3cc(N4CCOCC4)ccc3C(F)(F)F)nc12 [Compound 448]
A (Fold activation >200%),< 1000,O=C(Nc1ccccn1)c1cccc2[nH]c(-c3cc(N4CCOCC4)ccc3C(F)(F)F)nc12 [Compound 449]
A (Fold activation >200%),< 1000,"O=C(Nc1cccnc1)c1cccc2[nH]c(-c3cc(N4CCOCC4)ccc3C(F)(F)F)nc12 [Compound 450, 2-(5-morpholino-2-(trifluoromethyl)phenyl)-N-(pyridin-3-yl)-1H-benzo[d]imidazole-4-carboxamide]"
A (Fold activation >200%),< 1000,O=C(Nc1cccnn1)c1cccc2[nH]c(-c3ccccc3C(F)(F)F)nc12 [Compound 451]
A (Fold activation >200%),< 1000,Cc1cc(NC(=O)c2cccc3[nH]c(-c4ccc(Cl)cc4C(F)(F)F)nc23)no1 [Compound 452]
B (Fold Activation <200%),> 25000,O=C(NC1CCNCC1)c1cccc2[nH]c(-c3ccc(Cl)cc3C(F)(F)F)nc12 [Compound 453]
B (Fold Activation <200%),> 25000,O=C(NC1CCNCC1)c1cccc2[nH]c(-c3ccc(F)cc3C(F)(F)F)nc12 [Compound 454]
A (Fold activation >200%),< 1000,Cc1cc(NC(=O)c2cccc3[nH]c(-c4cc(F)ccc4C(F)(F)F)nc23)no1 [Compound 455]
A (Fold activation >200%),< 1000,O=C(Nc1cccnn1)c1cccc2[nH]c(-c3cc(F)ccc3C(F)(F)F)nc12 [Compound 456]
A (Fold activation >200%),< 1000,CN1CCOc2cc(-c3nc4c(C(=O)Nc5cccnn5)cccc4[nH]3)cnc21 [Compound 457]
A (Fold activation >200%),< 1000,Cc1nc(NC(=O)c2cccc3[nH]c(-c4cnc5c(c4)OCCN5C)nc23)sc1C [Compound 458]
A (Fold activation >200%),1000 to 25000,"O=C(Nc1nccs1)c1cccc2[nH]c(-c3ccccc3OC3CCNC3)nc12 (stereo not drawn) [Compound 459, 2-(2-(pyrrolidin-3-yloxy)phenyl)-N-(thiazol-2-yl)-1H-benzo[d]imidazole-4-carboxamide]"
A (Fold activation >200%),1000 to 25000,O=C(Nc1ccccn1)c1cccc2[nH]c(-c3ccccc3OC3CCNC3)nc12 (stereo not drawn) [Compound 460]

Fold Act. (percent maximum fold activation),EC1.5 [nM],Compound
A (Fold activation >200%),< 1000,Cc1cc(C)nc(NC(=O)c2cccc3[nH]c(-c4cnc5c(c4)OCCN5C)nc23)c1 [Compound 461]
A (Fold activation >200%),< 1000,O=C(Nc1nccs1)c1cccc2[nH]c(-c3cccc(OC4CCNC4)c3)nc12 (stereo not drawn) [Compound 462]
A (Fold activation >200%),1000 to 25000,O=C(Nc1ccccn1)c1cccc2[nH]c(-c3cccc(OC4CCNC4)c3)nc12 (stereo not drawn) [Compound 463]
A (Fold activation >200%),< 1000,Cc1cc(NC(=O)c2cccc3[nH]c(-c4ccc(F)cc4C(F)(F)F)nc23)no1 [Compound 464]
A (Fold activation >200%),< 1000,O=C(Nc1cccnn1)c1cccc2[nH]c(-c3ccc(F)cc3C(F)(F)F)nc12 [Compound 465]
A (Fold activation >200%),1000 to 25000,Cc1cc(NC(=O)c2cccc3[nH]c(-c4ccnn4-c4ccccc4)nc23)no1 [Compound 466]
A (Fold activation >200%),1000 to 25000,O=C(Nc1cccnn1)c1cccc2[nH]c(-c3ccnn3-c3ccccc3)nc12 [Compound 467]
B (Fold Activation <200%),> 25000,O=C(NCc1ccccn1)c1cccc2[nH]c(-c3ccnn3-c3ccccc3)nc12 [Compound 468]
A (Fold activation >200%),1000 to 25000,Cc1cc(NC(=O)c2cccc3[nH]c(-c4cccc(N5CCOCC5)c4)nc23)no1 [Compound 469]
A (Fold activation >200%),1000 to 25000,O=C(Nc1cccnn1)c1cccc2[nH]c(-c3cccc(N4CCOCC4)c3)nc12 [Compound 470]
A (Fold activation >200%),1000 to 25000,O=C(NCc1ccccn1)c1cccc2[nH]c(-c3cccc(N4CCOCC4)c3)nc12 [Compound 471]
B (Fold Activation <200%),1000 to 25000,O=C(Nc1ccccn1)c1cccc2[nH]c(-c3ccccc3OCCN3CCCC3)nc12 [Compound 472]
A (Fold activation >200%),1000 to 25000,CN1CCOc2cc(-c3nc4c(C(=O)Nc5cnccn5)cccc4[nH]3)cnc21 [Compound 473]
A (Fold activation >200%),1000 to 25000,O=C(Nc1ccccn1)c1cccc2[nH]c(-c3ccccc3OCCN3CCOCC3)nc12 [Compound 474]
A (Fold activation >200%),1000 to 25000,Cc1cnc(NC(=O)c2cccc3[nH]c(-c4ccccc4OCCN4CCOCC4)nc23)s1 [Compound 475]
A (Fold activation >200%),1000 to 25000,Cc1nc(NC(=O)c2cccc3[nH]c(-c4ccccc4OCCN4CCOCC4)nc23)sc1C [Compound 476]
A (Fold activation >200%),< 1000,Cn1cc(-c2nc3c(C(=O)Nc4nccs4)cccc3[nH]2)c(C(F)(F)F)n1 [Compound 477]
A (Fold activation >200%),< 1000,O=C(Nc1cccc(OCC(O)CO)c1)c1cccc2[nH]c(-c3ccccc3C(F)(F)F)nc12 (stereo not drawn) [Compound 478]
A (Fold activation >200%),< 1000,O=C(Nc1cccc(OCC(O)CO)c1)c1cccc2[nH]c(-c3ccc(Cl)cc3C(F)(F)F)nc12 (stereo not drawn) [Compound 479]
A (Fold activation >200%),< 1000,O=C(Nc1cccc(OCC(O)CO)c1)c1cccc2[nH]c(-c3cc(F)ccc3C(F)(F)F)nc12 (stereo not drawn) [Compound 480]
A (Fold activation >200%),< 1000,Cc1cc(NC(=O)c2cccc3[nH]c(-c4ccccc4C(F)(F)F)nc23)no1 [Compound 481]
A (Fold activation >200%),1000 to 25000,"O=C(Nc1nccs1)c1cccc2[nH]c(-c3ccccc3OCCN3CCCC3)nc12 [Compound 482, 2-(2-(2-(pyrrolidin-1-yl)ethoxy)phenyl)-N-(thiazol-2-yl)-1H-benzo[d]imidazole-4-carboxamide]"
